# Test results published in patent EP0659438A1, “Conjugates consisting of peptidic T cell antigens and cell binding groups, and their use for therapy” (BOEHRINGER MANNHEIM GMBH, priority 1993, dated 1995).
# Test system: T-cell clone SP2.2
# Assay: cells
# Assay type: cell-based, human
SMILES,inhibition of conjugate induced proliferation,reduction of P2-induced proliferation [%],"inhibition at 300 µM (Homo sapiens, T-cell, read-out: inhibition of conjugate induced proliferation) [%]",effect on free peptide induced proliferation
CCN(CC)CCCC(C)Nc1ccnc2cc(Cl)ccc12 (centres unmarked) [Chloroquine],can inhibit,50,100,–
CC(=O)N[C@@H](CC(C)C)C(=O)N[C@@H](CC(C)C)C(=O)N[C@H](C=O)CCCNC(=N)N [Leupeptin],can inhibit,–,–,almost no effect
